Like-named read-outs stand apart in the source and are kept apart here.
Experiments:
human MGL (hMGL) = target: T1, human MGL (hMGL) (Homo sapiens, UniProt Q99685); assay: Fluorescent assay for human MGL inhibition; assay type: biochemical; details: for hMGL inhibition: at concentrations up to 10 μM, known commercial ligands
T1 construct: made in house; host or cells: E. coli (lysate)
T1 sequence (Q99685 1-303): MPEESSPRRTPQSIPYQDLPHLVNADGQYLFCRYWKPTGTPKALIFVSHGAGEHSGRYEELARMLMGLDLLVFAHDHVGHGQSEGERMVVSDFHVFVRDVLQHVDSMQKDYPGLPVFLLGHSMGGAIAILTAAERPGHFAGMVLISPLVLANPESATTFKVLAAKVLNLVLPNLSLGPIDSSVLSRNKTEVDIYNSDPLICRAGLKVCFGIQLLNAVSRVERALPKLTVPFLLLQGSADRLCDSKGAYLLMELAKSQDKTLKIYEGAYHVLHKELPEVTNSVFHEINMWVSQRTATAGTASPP
Protocol: Fluorescent assay protocol for human MGL. Compound inhibition of hMGL activity was assessed by a fluorometric assay. The assay was carried out in a 96-well plate format and hMGL was monitored by the hydrolysis of the substrate […] or the substrate valeroyl-7-hydroxy-6-methoxy-4-methylcoumarin ester (VHMMCE) to form the fluorescent product, coumarin. Briefly, various concentrations of each compound were preincubated with hMGL (175 ng of total protein in E. coli lysate containing hMGL) for 15 minutes at room temperature. Upon the addition of the substrate, the reaction was incubated at […] for 120 minutes; fluorescence readings were taken every 15 minutes at 360 nm/460 nm (2excitation/λmission) using a Synergy HT Plate Reader (Bio-Tek, Winooski, Vt.). Under the incubation conditions, negligible substrate hydrolysis was observed. External standards were used to convert relative fluorescence units to the amount of 4-methylcoumarin formed. hMGL assays were performed in triplicate for each inhibitor concentration, and IC50 values were determined using Prizm software (FIGS. 1A-1G).

hCB1 receptors = target: T2, hCB1 receptors (Homo sapiens, UniProt P21554); assay: CB1 cAMP assay (inhibition of forskolin-stimulated cAMP accumulation); assay type: cell-based; details: for EC50: EC50 of 2-AG + Compound (1 μM), 2-AG in presence of 1 μM compound, forskolin 2 μM, HEK293 and/or CHO hCB1
T2 construct: expressed in transfected cells
T2 sequence (P21554 whole entry): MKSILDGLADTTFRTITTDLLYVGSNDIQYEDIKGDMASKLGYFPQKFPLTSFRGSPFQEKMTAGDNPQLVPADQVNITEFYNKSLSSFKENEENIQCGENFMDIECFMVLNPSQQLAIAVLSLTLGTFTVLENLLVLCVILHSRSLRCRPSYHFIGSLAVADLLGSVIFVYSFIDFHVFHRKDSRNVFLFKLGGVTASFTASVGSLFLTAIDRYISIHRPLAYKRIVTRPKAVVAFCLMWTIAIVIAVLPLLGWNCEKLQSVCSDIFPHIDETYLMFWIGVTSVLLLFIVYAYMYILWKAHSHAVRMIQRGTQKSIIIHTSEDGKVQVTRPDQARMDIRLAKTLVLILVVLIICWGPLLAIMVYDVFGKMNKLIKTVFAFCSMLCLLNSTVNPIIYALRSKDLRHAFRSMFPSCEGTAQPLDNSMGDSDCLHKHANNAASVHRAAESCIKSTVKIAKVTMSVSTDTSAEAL
Protocol: CB1 cAMP assays. Compounds are evaluated for their ability to modulate the actions of orthosteric ligands at CB1 receptor sites. HEK293 and/or CHO cells stably expressing hCB1 receptors were used for the studies. The CAMP assay was carried out using Perkin Elmer's Lance Ultra cAMP kit following the protocol as described in J Biomol Screen 1999, 4, (6), 303-308. The assays are carried out in a 384-well format using 1000-1500 cells/well. The cells are harvested with non-enzymatic cell dissociation reagent Versene, washed once with Hanks' Balanced Salt Solution (HBSS), and resuspended in the stimulation buffer. […] After 30 minutes of stimulation at room temperature, the Eu-CAMP tracer working solution (5 μL) and Ulight-anti-cAMP working solution (5 μL) are added to the plate and incubated at room temperature for 60 minutes. The data are collected via PerkinElmer Envision plate reader. The EC50 values are determined by nonlinear regression analysis using GraphPad Prism software (FIGS. 2A-2H).

human CB1 (hCB1) = human CB1 (hCB1) (Homo sapiens, UniProt P21554); assay: Competition binding assay, [3H]CP55,940 displacement, hCB1 HEK293 membranes; details: up to 100 nM; [3H]CP55,940 0.7 nM; 37 °C, 60 min
Sequence of human CB1 (hCB1) (P21554 whole entry): as above
Protocol: Cell membrane preparation. Fresh or frozen HEK293 cell pellets (2×10^8 cells expressing human CB1 (hCB1) or rat CB1 (rCB1)) were resuspended in 5 ml of TME [25 mM Tris, 5 mM MgCl2, 1 mM EDTA pH 7.4] supplemented with 0.5% protease inhibitor cocktail (Sigma, St Louis, MO, USA). Cells were lysed under nitrogen cavitation for 30 min at 1000 psi on ice, centrifuged at 1000 g for 10 min, and the supernatant was collected. The pellet was washed three times with 10 ml of TME containing protease inhibitors and the combined supernatant was centrifuged at 100,000 g for 45 min at 4 °C. The resultant membrane pellet was used immediately or stored at −80 °C. Protein concentration for the resulting membrane fraction was obtained using Bradford Assay.
Competition Binding Assay. Competition binding assays were performed in a 96-well format. Assays were carried out using [3H] CP55,940 and Tris binding buffer (50 mM Tris-HCl, 50 mM Tris-base, 0.1% BSA, pH 7.4), up to a total assay volume of 500 μL. The concentration of [^3H]CP55,940 used in our displacement assays was 0.7 nM. […] Radioactivity was quantified by liquid scintillation spectrometry. […] Ki values were determined by fitting the data to non-linear regression curve using Graph Pad Prism software.

[1] = Kinetic aqueous solubility by laser-based nephelometry; assay type: physicochemical; details: PBS buffer pH 7.4, 120 min, room temperature; relative to ZCZ011
Protocol: Aqueous solubility assays. The kinetic aqueous solubility of the compounds is determined using laser-based nephelometry. Linear serial dilutions of each compound are prepared in PBS buffer (pH=7.4) from DMSO stock solution (10 mM) in a 384-well plate. The compound solutions are mixed and incubated for 120 minutes at room temperature, followed by approximating the precipitation points for each compound using light scattering (laser-based BMG Labtech NEPHELOstar PLUS microplate nephelometer). In some aspects, the final solutions may contain 0 mM, 55 mM, 135 mM, or 500 mM of mannitol.

[2] = hMGL in E. coli lysate, 15 min preincubation, AHMMCE or VHMMCE substrate, read-out: MGL inhibition IC50

| Structure (SMILES) | IC50 (human MGL (hMGL); [2]) | EC50 (hCB1 receptors) | other results |
| --- | --- | --- | --- |
| O=[N+]([O-])C[C@H](c1ccc(B(O)O)cc1)c1c(-c2ccccc2)[nH]c2ccccc12 (single isomer, unassigned) [Compound 2] | 271 nM | 51.3 nM | – |
| O=[N+]([O-])C[C@@H](c1ccc(B(O)O)cc1)c1c(-c2ccccc2)[nH]c2ccccc12 (single isomer, unassigned) [Compound 3] | 58.8 nM | 37.5 nM | allosteric modulation of 2-AG and CP-55,940 at CB1 (hCB1 receptors; in words): positive allosteric modulator of both 2-AG and CP-55,940; increase of potency of 2-AG at CB1 (hCB1 receptors; orthosteric ligand 2-AG, positive allosteric modulator): ~ 2 fold; increase of potency of CP-55,940 at CB1 (hCB1 receptors; orthosteric ligand CP-55,940, positive allosteric modulator): ~ 2 fold |
| O=[N+]([O-])CC(c1ccc(B(O)O)cc1)c1c(-c2ccccc2)[nH]c2ccccc12 (stereo not drawn) [Compound 1, (4-(2-nitro-1-(2-phenyl-1H-indol-3-yl)ethyl)phenyl)boronic acid] | 63.5 nM | 102 nM | competition with CP-55,940 (human CB1 (hCB1)): do not compete with CP-55,940; aqueous solubility compared to ZCZ011 [1]: > 100 fold |
| O=[N+]([O-])CC(c1cccc(B(O)O)c1)c1c(-c2ccccc2)[nH]c2ccccc12 (stereo not drawn) [Compound 4, (3-(2-nitro-1-(2-phenyl-1H-indol-3-yl)ethyl)phenyl)boronic acid] | 979 nM | 40.8 nM | competition with CP-55,940 (human CB1 (hCB1)): do not compete with CP-55,940 |
| O=[N+]([O-])CC(c1ccccc1)c1c(-c2ccc(B(O)O)cc2)[nH]c2ccccc12 (stereo not drawn) [Compound 5, (4-(3-(2-nitro-1-phenylethyl)-1H-indol-2-yl)phenyl)boronic acid] | – | 57 nM | – |
| O=[N+]([O-])CC(c1ccc(B(O)O)cc1)c1c(-c2ccc(N=C=S)cc2)[nH]c2ccccc12 (stereo not drawn) [Compound 6, (4-(1-(2-(4-isothiocyanatophenyl)-1H-indol-3-yl)-2-nitroethyl)phenyl)boronic acid] | – | 57.2 nM | – |
| O=[N+]([O-])CC(c1ccccc1)c1c(-c2ccccc2)[nH]c2cc(B(O)O)ccc12 (stereo not drawn) [Compound 8, (3-(2-nitro-1-phenylethyl)-2-phenyl-1H-indol-6-yl)boronic acid] | 46.8 nM | – | – |
| O=[N+]([O-])CC(c1ccccc1)c1c(-c2ccc(S(=O)(=O)F)cc2)[nH]c2ccccc12 (stereo not drawn) [Compound 9, 4-(3-(2-nitro-1-phenylethyl)-1H-indol-2-yl)benzenesulfonyl fluoride] | – | – | IC50 (human MGL (hMGL)): 32.3 nM |
| O=[N+]([O-])CC(c1ccc(N=C=S)cc1)c1c(-c2ccccc2)[nH]c2ccccc12 (stereo not drawn) [Compound 10, 3-(1-(4-isothiocyanatophenyl)-2-nitroethyl)-2-phenyl-1H-indole] | 1160 nM | – | – |
| O=[N+]([O-])CC(c1ccccc1)c1c(-c2ccccc2)[nH]c2ccccc12 (stereo not drawn) [GAT211, 3-(2-nitro-1-phenylethyl)-2-phenyl-1H-indole, reference compound] | – | – | hMGL inhibition (human MGL (hMGL)): did not show any hMGL inhibition at concentrations up to 10 μM |
| Cc1ccc2c(C(C[N+](=O)[O-])c3cccs3)c(-c3ccccc3)[nH]c2c1 (stereo not drawn) [ZCZ011, 6-methyl-3-(2-nitro-1-(thiophen-2-yl)ethyl)-2-phenyl-1H-indole, reference compound] | – | – | hMGL inhibition (human MGL (hMGL)): did not show any hMGL inhibition at concentrations up to 10 μM |

From patent publication US20260364098A1, “HETEROARYL COMPOUNDS AS ENDOCANNABINOID SYSTEM MODULATORS AND USES THEREOF” (Northeastern University, priority 2023, published 2026)
